Data published in US8188080B2 (Sanford-Burnham Medical Research Institute, priority 2007, dated 2012).
Where two headings read alike, the source gives them in different places.

Experiments:
Assay type in all cases: biochemical
[1] = biological target: T1, MKP-1 (Homo sapiens, UniProt P28562); experiment: PTP-catalyzed hydrolysis of DiFMUP, IC50 determination (MKP-1)
T1 sequence (P28562 1-367): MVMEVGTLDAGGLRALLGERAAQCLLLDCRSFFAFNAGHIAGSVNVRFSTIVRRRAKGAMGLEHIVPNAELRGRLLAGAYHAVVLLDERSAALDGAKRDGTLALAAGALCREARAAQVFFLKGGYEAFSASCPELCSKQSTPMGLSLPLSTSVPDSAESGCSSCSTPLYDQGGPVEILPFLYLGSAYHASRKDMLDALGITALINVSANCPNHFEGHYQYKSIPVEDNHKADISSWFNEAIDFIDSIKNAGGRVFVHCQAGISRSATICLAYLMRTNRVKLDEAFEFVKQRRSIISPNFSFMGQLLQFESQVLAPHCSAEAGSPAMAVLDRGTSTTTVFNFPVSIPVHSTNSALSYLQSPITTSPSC
Method: The PTP-catalyzed hydrolysis of 6,8-difluoro-4-methylumbelliferyl phosphate (DiFMUP) in the presence of the test compound is assayed at 30° C. in a 60 μL 96 well format reaction system in 0.15 M Bis-Tris, pH 6.0 assay buffer having an ionic strength of 150 mM (adjusted with NaCl) and containing 1 mM dithiotreitol and 5% DMSO. […] The nonenzymatic hydrolysis of the substrate was corrected by measuring the control without addition of enzyme. The IC50 value was determined by plotting the relative activity versus inhibitor concentrations and fitting to Equation 1 using the software GraphPad Prism™ (GraphPad Software, Inc.).
(§1) [formula] In this case, Vi, is the reaction velocity when the inhibitor concentration is [I], V0 is the reaction velocity with no inhibitor and IC50=Ki+Ki[S]/Km.

[2] = biological target: VHR (Homo sapiens, UniProt P51452); experiment: PTP-catalyzed hydrolysis of DiFMUP, IC50 determination (VHR); conditions: DiFMUP at Km, pH 6.0, 30° C.
Sequence of VHR (P51452 whole entry): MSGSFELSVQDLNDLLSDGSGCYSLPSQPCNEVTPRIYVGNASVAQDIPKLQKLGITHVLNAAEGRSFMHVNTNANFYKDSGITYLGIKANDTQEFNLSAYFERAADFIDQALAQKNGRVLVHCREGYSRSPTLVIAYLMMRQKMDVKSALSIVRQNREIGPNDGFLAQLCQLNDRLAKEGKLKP
Method: (§2) The PTP-catalyzed hydrolysis of 6,8-difluoro-4-methylumbelliferyl phosphate (DiFMUP) in the presence of the test compound is assayed at 30° C. in a 60 μL 96 well format reaction system in 0.15 M Bis-Tris, pH 6.0 assay buffer having an ionic strength of 150 mM (adjusted with NaCl) and containing 1 mM dithiotreitol and 5% DMSO. At various concentrations of the compound, the initial rate at fixed DiFMUP concentration (equal to the corresponding Km value for each PTP) was determined using a FLx800 micro plate reader (Bio-Tek Instruments, Inc.), an excitation wave length of 360 nm and measuring the emission of the fluorescent reaction product 6,8-difluoro-7-hydroxy-4-methylcoumarin (DiFMU) at 460 nm. The nonenzymatic hydrolysis of the substrate was corrected by measuring the control without addition of enzyme. The IC50 value was determined by plotting the relative activity versus inhibitor concentrations and fitting to Equation 1 using the software GraphPad Prism™ (GraphPad Software, Inc.).
as §1

[3] = biological target: T2, PTP1B (Homo sapiens, UniProt P18031); experiment: PTP-catalyzed hydrolysis of DiFMUP, IC50 determination (PTP1B)
T2 sequence (P18031 1-435): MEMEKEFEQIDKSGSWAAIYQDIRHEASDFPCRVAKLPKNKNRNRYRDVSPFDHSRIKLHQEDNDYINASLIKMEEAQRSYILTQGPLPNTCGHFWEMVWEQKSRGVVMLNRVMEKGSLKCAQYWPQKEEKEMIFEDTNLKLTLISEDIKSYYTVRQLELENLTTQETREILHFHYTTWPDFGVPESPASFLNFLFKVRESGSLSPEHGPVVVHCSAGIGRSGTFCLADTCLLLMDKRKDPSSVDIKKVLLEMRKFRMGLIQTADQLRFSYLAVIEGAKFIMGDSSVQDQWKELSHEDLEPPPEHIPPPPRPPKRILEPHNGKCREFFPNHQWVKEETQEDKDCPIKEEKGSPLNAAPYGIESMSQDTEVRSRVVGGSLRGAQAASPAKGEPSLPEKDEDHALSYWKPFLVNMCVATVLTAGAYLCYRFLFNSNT
Method: as §2, §1

[4] = biological target: T3, Cdc25A (Homo sapiens, UniProt P30304); experiment: PTP-catalyzed hydrolysis of DiFMUP, IC50 determination (Cdc25A)
T3 sequence (P30304 1-524): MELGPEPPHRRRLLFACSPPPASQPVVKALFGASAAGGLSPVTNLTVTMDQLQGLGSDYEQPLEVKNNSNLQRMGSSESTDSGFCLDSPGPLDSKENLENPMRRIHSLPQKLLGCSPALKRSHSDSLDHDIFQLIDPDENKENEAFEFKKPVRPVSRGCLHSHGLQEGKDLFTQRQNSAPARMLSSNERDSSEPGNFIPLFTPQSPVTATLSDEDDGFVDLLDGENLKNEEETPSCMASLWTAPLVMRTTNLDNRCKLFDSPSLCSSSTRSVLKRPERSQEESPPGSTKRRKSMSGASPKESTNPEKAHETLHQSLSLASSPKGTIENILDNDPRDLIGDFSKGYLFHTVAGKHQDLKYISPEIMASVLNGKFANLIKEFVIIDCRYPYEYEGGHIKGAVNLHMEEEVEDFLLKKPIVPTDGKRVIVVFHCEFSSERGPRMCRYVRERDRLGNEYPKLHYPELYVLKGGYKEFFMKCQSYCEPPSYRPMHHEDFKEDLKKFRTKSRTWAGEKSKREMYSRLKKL
Method: as §2, §1

[5] = Table II, DiFMUP at Km, pH 6.0, 30° C.

IC50 [1] [µM] | Structure (SMILES) | IC50 [1, 5] [µM] | IC50 ([2]; Table I, read-out: IC50) [µM] | IC50 ([2]; Table II, read-out: IC50 VHR) [µM] | IC50 [3] [µM] | IC50 [4, 5] [µM] | IC50 [3, 5] [µM] | IC50 [4] [µM]
– | O=C1/C(=C/c2cn(-c3ccccc3)nc2-c2ccc(OCc3ccccc3)cc2)SC(=S)N1CCS(=O)(=O)O [Compound 9] | 0.779 | 0.078 | 0.078 | 1.75 | 3.44 | – | –
– | O=C1/C(=C/c2cn(-c3ccccc3)nc2-c2ccc(OCc3ccc(Cl)cc3)cc2)SC(=S)N1CCS(=O)(=O)O [Compound 10, (Z)-2-[5-({3-[4-(4-chlorobenzyloxy)phenyl]-1-phenyl-1H-pyrazol-4-yl}methylene)-4-oxo-2-thioxothiazolidin-3-yl]ethane sulfonic acid] | 0.457 | 0.018 | 0.018 | – | – | 0.456 | 2.45
0.474 | O=C1/C(=C/c2cn(-c3ccccc3)nc2-c2ccc(S(=O)(=O)N3CCOCC3)cc2)SC(=S)N1CCS(=O)(=O)O [Compound 14] | – | 2.44 | 0.071 | 0.592 | – | – | 3.37
